Test results as given in article PMC9026348, “Investigation of Direct and Retro Chromone-2-Carboxamides Based Analogs of Pseudomonas aeruginosa Quorum Sensing Signal as New Anti-Biofilm Agents” (Pharmaceuticals, 2022).

Legend:
[1] = tested on: P. aeruginosa PAO1 biofilms; test: Anti-biofilm assay, CFU count of adherent cells; type: cell-based, Pseudomonas aeruginosa PAO1; details: PAO1, 48 h, relative to untreated control, mean ± SD of 3 independent experiments; for inhibition at 50 µM: Pseudomonas aeruginosa
Procedure: The effect of all compounds was evaluated on PAO1 biofilms, grown in 24-well microplates. The antibiofilm assay used in this study is based on a low nutritive culture medium, a rather weak inoculum (10^2 CFU/mL), and a regular renewal of the culture medium (at 2, 4, 6, 20, and 24 h), in order to promote the growth of adhered cells as biofilm, instead of the growth and/or sedimentation of planktonic cells. Since the QS systems are involved in early steps of biofilm formation, compounds were added at t0. After incubation, viable cells were quantified by CFU plate counts.
The rather low concentration of 50 µM used was set up according to detected concentrations of QS molecules in CF patients’ lungs. […] For all compounds, MICs/MBCs were higher than 500 µM. To be considered active, a threshold of 50% inhibition, relative to the untreated control, was applied.
Pseudomonas aeruginosa PAO1 was obtained from the Institute Pasteur Collection (CIP 104116, Paris, France), frozen and kept at -80 °C in a 20% (v/v) glycerol stock solution. Before each experiment, two successive subcultures were prepared on trypticase soy agar and incubated for 24 h under aerobic conditions at 37 °C. Before each experiment, bacterial suspensions of 10^8 CFU/mL were prepared by adjusting OD at 640 nm to 0.150.
The bacterial enumerations were done on trypticase soy agar. The minimum biofilm broth used for biofilm formation (MBB) was prepared in sterile distilled water (SDW) and was composed of MgSO4·7H2O (0.02 g/L), FeSO4·7H2O (0.5 mg/L), Na2HPO4 (1.25 g/L), KH2PO4 (0.5 g/L), (NH4)2SO4 (0.1 g/L), and glucose (0.05 g/L) from Merck-Sigma (France).
The enumeration of adhered bacteria was carried-out according to Campanac et al. with some modifications. P. aeruginosa biofilms were grown in a 24-wells microtiter plate for 48 h. The culture medium was composed of BBM 2X (1.0 mL) and 1.0 mL of a 10^−4 M solution of tested compound dissolved in SDW (final concentration 50 µM). After inoculation with 100 µL of a 10^2 CFU/mL bacterial suspension of P. aeruginosa PAO1 (final inoculum 10 CFU/well), the microtiter plate was incubated à 37 °C. After 2 h, 4 h, 6 h, 20 h and 24 h of incubation, each well was emptied, rinsed twice with SDW, and the culture medium was renewed. After 48 h of culture, the biofilm was rinsed twice with 2.0 mL SDW. The bottom of each well was scraped with a sterile spatula and suspended in 1.0 mL of SDW. The content of each well was diluted by serial dilutions in test tubes. After inclusion of 0.9 mL of each dilution in trypticase soy agar, Petri dishes were incubated for 48 h at 37 °C. The number of colony forming units (CFUs) was counted and the inhibition percentage calculated using the following formula: Inhibition(%)=Adhered cellsControl(CFU/mL)−Adhered cellsSample(CFU/mL) /Adhered cellsControl×100

Cytotoxicity, MTT assay = type: cell-based; details: African green monkey, Vero cells (ATCC CCL-81)
Procedure: Cells were incubated with different concentrations of compounds 3e, 3′a, 6a, 6b, 6d, 6f, 6k, 6s, 6n, and 6o, varying from 3.9 µM to 1.0 mM. The relative cell viabilities were determined after 24 h using the MTT assay and compared to the untreated control (100% viability). A 5% Tween solution was used as positive control. Figure 5 reports the viability % for all evaluated concentrations.
Evaluation of compounds’ cytotoxicity was performed using the MTT (3-(4,5-dimethylthiazol-2-yl)-2,5-diphenyltetrazolium bromide) colorimetric assay, based on the Mosmann et al. procedure with some modifications. […] Stock solutions of each compound prepared in Dulbeccos’s phosphate-buffered saline (D-PBS, Sigma, St. Quentin Fallavier, France) at a concentration of 2 mM were subjected to 2-fold serial dilutions with RPMI medium.
96-wells microtiter plates were first filled with 100 µL of a cell suspension prepared in RPMI medium (2 × 10^4 cells/100 µL). […] A third control was performed with a non-inoculated culture medium and compounds solution to validate the absence of interactions (OD measurements) between the assessed molecule and the reagents used in the procedure. […] After agitation, the OD was measured at 570 nm using a CLARIOstar Plus plate reader (BMG Labtech) and the viability percentage was calculated using the following formula. […]

melting point [°C] | SMILES | Biofilm Inhibition (%) ([1]; 50 µM) | inhibition at 50 µM [1] [%] | IC50 at 24 h (Cytotoxicity, MTT assay) [µM]
229 | COc1ccc(NC(=O)c2cc(=O)c3ccccc3o2)cc1OC [3s, N-(3,4-Dimethoxyphenyl)-4-oxo-4H-chromene-2-carboxamide] |  | < 10 | 
224 | O=C(Nc1cc(=O)c2ccccc2o1)c1ccc(F)c(Cl)c1 [6l, 3-Chloro-4-fluoro-N-(4-oxo-4H-chromen-2-yl) benzamide] |  | 67.2 ± 5.2 | 
171 | O=C(NCCCn1ccnc1)c1cc(=O)c2ccccc2o1 [3′f, N-(3-(1H-Imidazol-1-yl)propyl)-4-oxo-4H-chromene-2-carboxamide] |  | < 10 | 
218 | CSc1ccccc1C(=O)Nc1cc(=O)c2ccccc2o1 [6r, 2-(Methylthio)-N-(4-oxo-4H-chromen-2-yl) benzamide] |  | 60.3 ± 15.8 | 
229 | O=C(Nc1ccccc1)c1cc(=O)c2ccccc2o1 [3a, 4-Oxo-N-phenyl-4H-chromene-2-carboxamide] |  | 21.4 ± 17 | 
198 | COc1cc(OC)cc(C(=O)Nc2cc(=O)c3ccccc3o2)c1 [6t, 3,5-Dimethoxy-N-(4-oxo-4H-chromen-2-yl) benzamide] |  | 43.8 ± 2.4 | 
168 | CCc1cccc(NC(=O)c2cc(=O)c3ccccc3o2)c1 [3′a, N-(3-Ethylphenyl)-4-oxo-4H-chromene-2-carboxamide] |  | 70.5 ± 5.6 | 
265 | O=C(Nc1ccc(Cl)cc1)c1cc(=O)c2ccccc2o1 [3f, N-(4-Chlorophenyl)-4-oxo-4H-chromene-2-carboxamide] |  | 25.9 ± 4.3 | 
212 | CCCC(=O)Nc1cc(=O)c2ccccc2o1 [6w, N-(4-Oxo-4H-chromen-2-yl) butyramide] |  | 56.4 ± 7.2 | 
228 | O=C(Nc1cc(=O)c2ccccc2o1)c1ccccc1Cl [6i, 2-Chloro-N-(4-oxo-4H-chromen-2-yl) benzamide] |  | 59.3 ± 3.3 | 
201 | O=C(NC12CC3CC(CC(C3)C1)C2)c1cc(=O)c2ccccc2o1 [3y, N-((3S,5S,7S)-Adamantan-1-yl)-4-oxo-4H-chromene-2-carboxamide] |  | 24.4 ± 8.8 | 
288 | O=C(Nc1ccc(N2CCOCC2)cc1)c1cc(=O)c2ccccc2o1 [3u, N-(4-Morpholinophenyl)-4-oxo-4H-chromene-2-carboxamide] |  | 51.2 ± 11.7 | 
229 | CCCc1ccc(C(=O)Nc2cc(=O)c3ccccc3o2)cc1 [6d, N-(4-Oxo-4H-chromen-2-yl)-4-propylbenzamide] |  | 69.9 ± 9.7 | 
173 | CCCc1ccc(NC(=O)c2cc(=O)c3ccccc3o2)cc1 [3d, 4-Oxo-N-(4-propylphenyl)-4H-chromene-2-carboxamide] |  | 55.6 ± 18.3 | 
286 | O=C(Nc1cc(=O)c2ccccc2o1)C12CC3CC(CC(C3)C1)C2 [6y, (3R,5R,7R)-N-(4-Oxo-4H-chromen-2-yl) adamantane-1-carboxamide] |  | 19.5 ± 1.8 | 
199 | COc1ccccc1NC(=O)c1cc(=O)c2ccccc2o1 [3q, N-(2-Methoxyphenyl)-4-oxo-4H-chromene-2-carboxamide] |  | 41.3 ± 5.7 | 

SMILES | melting point [°C] | Biofilm Inhibition (%) ([1]; 50 µM) | inhibition at 50 µM [1] [%] | IC50 at 24 h (Cytotoxicity, MTT assay) [µM]
O=C(Nc1cc(=O)c2ccccc2o1)c1ccc([N+](=O)[O-])cc1[N+](=O)[O-] [6n, 2,4-Dinitro-N-(4-oxo-4H-chromen-2-yl) benzamide] | 252 | 90.0 ± 9.9 | 90.9 ± 9.9 | > 1000
O=C(Nc1ccc([N+](=O)[O-])cc1[N+](=O)[O-])c1cc(=O)c2ccccc2o1 [3n, N-(2,4-Dinitrophenyl)-4-oxo-4H-chromene-2-carboxamide] | 330 |  | < 10 | 
CCN(CC)Cc1cc(NC(=O)c2cc(=O)c3ccccc3o2)ccc1O [3′c, N-(3-((Diethylamino)methyl)-4-hydroxyphenyl)-4-oxo-4H-chromene-2-carboxamide] | 186 |  | 39.7 ± 4.5 | 
